Experiments:
wild mustard = experiment: Test D preemergence; assay type: in vivo, Sinapis arvensis
From the text: (§1) Seeds of plant species selected from bluegrass (annual bluegrass, Poa annua), blackgrass (Alopecurus myosuroides), canarygrass (littleseed canarygrass, Phalaris minor), chickweed (common chickweed, Stellaria media), galium (catchweed bedstraw, Galium aparine), bromegrass, downy (downy bromegrass, Bromus tectorum), field poppy (Papaver rhoeas), field violet (Viola arvensis), green foxtail (Setaria viridis), deadnettle (henbit deadnettle, Lamium amplexicaule), Italian ryegrass (Lolium multiflorum), kochia (Kochia scoparia), lambsquarters (Chenopodium album), oilseed rape (Brassica napus), pigweed (Amaranthus retroflexus), chamomile (scentless chamomile, Matricaria inodora), Russian thistle (Salsola kali), speedwell (bird's-eye speedwell, Veronica persica), spring barley (Hordeum vulgare), spring wheat (Triticum aestivum), wild buckwheat (Polygonum convolvulus), wild mustard (Sinapis arvensis), wild oat (Avena fatua), wild radish (Raphanus raphanistrum), windgrass (Apera spica-venti), winter barley (Hordeum vulgare), and winter wheat (Triticum aestivum) were planted into a silt loam soil and treated preemergence with test chemicals formulated in a non-phytotoxic solvent mixture which included a surfactant.
(§2) At the same time, these species were planted in pots containing Redi-Earth® planting medium (Scotts Company, 14111 Scottslawn Road, Marysville, Ohio 43041) comprising spaghnum peat moss, vermiculite, wetting agent and starter nutrients and treated with postemergence applications of the test chemicals formulated in the same manner. Plants ranged in height from 2 to 18 cm (1- to 4-leaf stage). Treated plants and controls were maintained in a controlled growth environment for 7 to 21 days after which time all species were compared to controls and visually evaluated. Plant response ratings, summarized in Table D, are based on a scale of 0 to 100 where 0 is no effect and 100 is complete control. A dash (-) response means no test result.

Italian ryegrass = experiment: Test D postemergence; assay type: in vivo, Lolium multiflorum
From the text: as §1, §2

chickweed = experiment: Test D preemergence; assay type: in vivo, Stellaria media
From the text: as §1, §2

windgrass = experiment: Test D postemergence; assay type: in vivo, Apera spica-venti
From the text: as §1, §2

bluegrass = experiment: Test D postemergence; assay type: in vivo, Poa annua
From the text: as §1, §2

speedwell = experiment: Test D preemergence; assay type: in vivo, Veronica persica
From the text: as §1, §2

blackgrass = experiment: Test D preemergence; assay type: in vivo, Alopecurus myosuroides
From the text: as §1, §2

galium = experiment: Test D preemergence; assay type: in vivo, Galium aparine
From the text: as §1, §2

[1] = 16 g ai/ha, scale 0 (no effect) to 100 (complete control)
[2] = 31 g ai/ha, scale 0 to 100 (0 no effect, 100 complete control)
[3] = 62 g ai/ha, scale 0 to 100 (0 no effect, 100 complete control)
[4] = 125 g ai/ha, scale 0 to 100 (0 no effect, 100 complete control)
[5] = 250 g ai/ha, scale 0 to 100 (0 no effect, 100 complete control)

## Clc1cnc(Oc2ccccc2-n2cc(Cl)cn2)nc1 [Compound 3]
Wild mustard; [1]
  Plant response rating, Mustard, Wild: 30
Wild mustard; 31 g ai/ha, scale 0-100
  Plant response rating, Mustard, Wild: 80
Wild mustard; 62 g ai/ha, scale 0-100
  Plant response rating, Mustard, Wild: 80
Wild mustard; 125 g ai/ha, scale 0-100
  Plant response rating, Mustard, Wild: 90
Wild mustard; 250 g ai/ha, scale 0-100
  Plant response rating, Mustard, Wild: 100
Italian ryegrass; 16 g ai/ha, scale 0-100
  Plant response rating, Ryegrass, Italian: 60
Italian ryegrass; [2]
  Plant response rating, Ryegrass, Italian: 0
Italian ryegrass; [3]
  Plant response rating, Ryegrass, Italian: 0
Italian ryegrass; [4]
  Plant response rating, Ryegrass, Italian: 0
Italian ryegrass; [5]
  Plant response rating, Ryegrass, Italian: 0
chickweed; [1]
  Plant response rating, Chickweed: 0
chickweed; 62 g ai/ha, scale 0-100
  Plant response rating, Chickweed: 0
chickweed; 250 g ai/ha, scale 0-100
  Plant response rating, Chickweed: 90
windgrass; 16 g ai/ha, scale 0-100
  Plant response rating, Windgrass: 70
windgrass; [2]
  Plant response rating, Windgrass: 0
windgrass; [3]
  Plant response rating, Windgrass: 0
windgrass; [4]
  Plant response rating, Windgrass: 0
windgrass; [5]
  Plant response rating, Windgrass: 10
bluegrass; Postemergence, 62 g ai/ha, scale 0 to 100 (0 no effect, 100 complete control)
  Plant response rating, Bluegrass: 0
bluegrass; Postemergence, 31 g ai/ha, scale 0 to 100 (0 no effect, 100 complete control)
  Plant response rating, Bluegrass: 0
bluegrass; Postemergence, 125 g ai/ha, scale 0 to 100 (0 no effect, 100 complete control)
  Plant response rating, Bluegrass: 0
bluegrass; Postemergence, 250 g ai/ha, scale 0 to 100 (0 no effect, 100 complete control)
  Plant response rating, Bluegrass: 10
bluegrass; postemergence, 16 g ai/ha, scale 0 to 100, 0 no effect, 100 complete control
  Plant response rating, Bluegrass: 40
speedwell; [1]
  Plant response rating, Speedwell: 100
speedwell; 31 g ai/ha, scale 0 (no effect) to 100 (complete control)
  Plant response rating, Speedwell: 100
speedwell; 62 g ai/ha, scale 0-100
  Plant response rating, Speedwell: 100
speedwell; 125 g ai/ha, scale 0-100
  Plant response rating, Speedwell: 100
speedwell; 250 g ai/ha, scale 0-100
  Plant response rating, Speedwell: 100
blackgrass; [1]
  Plant response rating, Blackgrass: 0
blackgrass; 31 g ai/ha, scale 0-100
  Plant response rating, Blackgrass: 0
blackgrass; 62 g ai/ha, scale 0-100
  Plant response rating, Blackgrass: 0
blackgrass; 125 g ai/ha, scale 0-100
  Plant response rating, Blackgrass: 0
blackgrass; 250 g ai/ha, scale 0-100
  Plant response rating, Blackgrass: 0
galium; [1]
  Plant response rating, Galium: 0
galium; 31 g ai/ha, scale 0-100
  Plant response rating, Galium: 0
galium; 62 g ai/ha, scale 0-100
  Plant response rating, Galium: 10
galium; 125 g ai/ha, scale 0-100
  Plant response rating, Galium: 70
galium; 250 g ai/ha, scale 0-100
  Plant response rating, Galium: 100

Reference: patent publication US9695155B2, “Herbicidal substituted pyrimidinyloxy benzene compounds” (E. I. DU PONT DE NEMOURS AND COMPANY, priority 2013, dated 2017)
